Measured values reported in BindingDB's records for doi:10.1021/jm00061a022 (Merck Research Laboratories, 1993).

What was measured:
Test in all cases: HIV-1 RT Assay
Conditions in all cases: pH 8.2
[1] = molecular target: Gag-Pol polyprotein [588-1027,K690N]/[588-1147,K690N] (Human immunodeficiency virus 1, UniProt P04585, K690N)
[2] = molecular target: Gag-Pol polyprotein [588-1027]/[588-1147] (Human immunodeficiency virus 1, UniProt P04585)
[3] = molecular target: Gag-Pol polyprotein [588-1127,Y768C]/[588-1147,Y768C] (Human immunodeficiency virus 1, UniProt P04585, Y768C)

SMILES	IC50 [1]	IC50 [2]	IC50 [3]
[O-][S+](Cc1[nH]c2ccccc2c1Sc1ccccc1)c1ccccc1 (configuration not stated) [2-[(benzenesulfinyl)methyl]-3-(phenylsulfanyl)-1H-indole]	2.57 µM	0.063 µM	2.99 µM
[O-][S+](Cc1[nH]c2ccc(Cl)cc2c1Sc1ccccc1)c1ccccc1 (configuration not stated) [2-[(benzenesulfinyl)methyl]-5-chloro-3-(phenylsulfanyl)-1H-indole]	–	0.112 µM	–
[O-][S+](Cc1[nH]c2ccccc2c1[S+]([O-])c1ccccc1)c1ccccc1 (configuration not stated) [3-(benzenesulfinyl)-2-[(benzenesulfinyl)methyl]-1H-indole]	–	72.8 µM	–
NC(=O)c1[nH]c2ccc(Cl)cc2c1[S+]([O-])c1ccccc1 (configuration not stated) [3-(benzenesulfinyl)-5-chloro-1H-indole-2-carboxamide]	2.76 µM	0.023 µM	1.39 µM
NC(=O)c1[nH]c2ccc(Cl)cc2c1Sc1ccccc1 [5-chloro-3-(phenylsulfanyl)-1H-indole-2-carboxamide]	1.46 µM	0.014 µM	1.04 µM
CNC(=O)c1[nH]c2ccc(Cl)cc2c1Sc1ccccc1 [5-chloro-N-methyl-3-(phenylsulfanyl)-1H-indole-2-carboxamide]	–	0.022 µM	–
NC(=O)c1[nH]c2ccc(Cl)cc2c1S(=O)(=O)c1ccccc1 [5Cl3PhSO2-2IndolCONH2]	0.116 µM	0.003 µM	0.071 µM
CC(C)=CCN1Cc2cc(Cl)cc3[nH]c(=S)n(c23)C[C@@H]1C [(11S)-6-chloro-11-methyl-10-(3-methylbut-2-en-1-yl)-1,3,10-triazatricyclo[6.4.1.0^{4,13}]trideca-4,6,8(13)-triene-2-thione]	7.32 µM	0.311 µM	39.5 µM
CN(C)C(=O)c1[nH]c2ccccc2c1Sc1ccccc1 [N,N-dimethyl-3-(phenylsulfanyl)-1H-indole-2-carboxamide]	–	87.6 µM	–
CNC(=O)c1[nH]c2ccccc2c1Sc1ccccc1 [N-methyl-3-(phenylsulfanyl)-1H-indole-2-carboxamide]	–	0.746 µM	–
COC(=O)c1[nH]c2ccccc2c1Sc1ccccc1 [methyl 3-(phenylsulfanyl)-1H-indole-2-carboxylate]	–	2.5 µM	–
COC(=O)c1[nH]c2ccc(Cl)cc2c1Sc1ccccc1 [methyl 5-chloro-3-(phenylsulfanyl)-1H-indole-2-carboxylate]	–	0.156 µM	–
